{
  "source": "paper PMC7570844",
  "about": "“Skin Damages—Structure Activity Relationship of Benzimidazole Derivatives Bearing a 5-Membered Ring System” (Molecules, 2020)",
  "key": {"[1]": {"test_system": "herpes simplex virus-1 (KOS)", "assay": "Antiviral activity in HEL cell cultures (CPE, MTS)", "assay_type": "cell-based", "details": "Human alphaherpesvirus 1, HEL cells"}, "[2]": {"test_system": "herpes simplex virus-1 TK-KOS ACVr", "assay": "microbe, parasite or virus in culture", "assay_type": "cell-based", "details": "Human alphaherpesvirus 1, HEL, read-out: Antiviral EC50"}, "[3]": {"test_system": "herpes simplex virus-2 (G)", "assay": "Antiviral activity in HEL cell cultures (CPE, MTS)", "assay_type": "cell-based", "details": "Human alphaherpesvirus 2; Herpes simplex virus-2, HEL cells"}, "vaccinia virus": {"test_system": "vaccinia virus", "assay": "microbe, parasite or virus in culture", "assay_type": "cell-based", "details": "Orthopoxvirus vaccinia, HEL, read-out: Antiviral EC50"}, "[4]": {"test_system": "human embryonic lung (HEL) cell cultures"}, "[5]": {"assay": "Ferric reducing antioxidant power (FRAP) test", "details": "mean ± SEM"}, "[6]": {"assay": "DPPH radical scavenging test", "details": "mean ± SEM"}, "Adeno virus-2": {"test_system": "Adeno virus-2", "assay": "Antiviral activity in HEL cell cultures (CPE, MTS)", "assay_type": "cell-based", "details": "Adeno virus-2, HEL cells"}, "[7]": {"test_system": "human melanoma cells (SK-Mel 5)", "assay": "Cell proliferation inhibition"}, "Trichophyton tonsurans": {"test_system": "Trichophyton tonsurans", "assay": "Antidermatophyte plaque growth inhibition", "assay_type": "cell-based", "details": "T. tonsurans, 100 µg/mL, '+' has no key, read-out: Percent growth inhibition"}, "Epidermophyton floccosum": {"test_system": "Epidermophyton floccosum", "assay": "Antidermatophyte plaque growth inhibition", "assay_type": "cell-based", "details": "E. floccosum, 100 µg/mL, '+' has no key, read-out: Percent growth inhibition"}, "[8]": {"test_system": "Respiratory syncytial virus", "assay": "microbe, parasite or virus in culture", "assay_type": "cell-based", "details": "human respiratory syncytial virus, HeLa cells, read-out: Antiviral EC50"}, "[9]": {"test_system": "Trichophyton mentagrophytes", "assay": "Antidermatophyte plaque growth inhibition", "assay_type": "cell-based", "details": "T. mentagrophytes, 100 µg/mL, '+' has no key, read-out: Percent growth inhibition"}, "[10]": {"test_system": "human cervical carcinoma cells (HeLa)", "assay": "Cell proliferation inhibition"}, "HeLa cell cultures": {"test_system": "HeLa cell cultures", "details": "human"}, "[11]": {"test_system": "human pancreatic carcinoma cells (Mia Paca-2)", "assay": "Cell proliferation inhibition"}, "Coxsackie virus B4": {"test_system": "Coxsackie virus B4", "assay": "Antiviral activity in HeLa cell cultures (CPE, MTS)", "assay_type": "cell-based", "details": "Enterovirus B; Coxsackie virus B4, HeLa cells"}, "Human Coronavirus (229E)": {"test_system": "Human Coronavirus (229E)", "assay": "microbe, parasite or virus in culture", "assay_type": "cell-based", "details": "HEL, read-out: Antiviral EC50"}, "[12]": {"test_system": "HEK293T (Normal Kidney Epithelial Cells)", "assay": "Cell proliferation inhibition, non-cancer control cells", "details": "Homo sapiens, HEK-293T"}, "Microsporum canis": {"test_system": "Microsporum canis", "assay": "Antidermatophyte plaque growth inhibition", "assay_type": "cell-based", "details": "M. canis, 100 µg/mL, '+' has no key, read-out: Percent growth inhibition"}, "Microsporum gypseum": {"test_system": "Microsporum gypseum", "assay": "Antidermatophyte plaque growth inhibition", "assay_type": "cell-based", "details": "Nannizzia gypsea; M. gypseum, 100 µg/mL; '+' has no key; read-out: Percent growth inhibition"}, "[13]": {"assay": "UV filtering parameters of compounds in solution (MeOH, 290-400 nm)"}, "[14]": {"test_system": "vesicular stomatitis virus", "assay": "microbe, parasite or virus in culture", "assay_type": "cell-based", "details": "HeLa, read-out: Antiviral EC50"}, "[15]": {"test_system": "human T-lymphocyte cells (CEM)", "assay": "Cell proliferation inhibition"}},
  "data": [
    {"smiles": "Nc1nc2c(ncn2COCCO)c(=O)[nH]1", "note": "[Acyclovir, reference compound]", "values": [
      {"measurement": "EC50", "setting": "[1]", "value": 0.6, "unit": "µM"},
      {"measurement": "EC50", "setting": "[2]", "value": 2, "unit": "µM"},
      {"measurement": "EC50", "setting": "[3]", "value": 0.6, "unit": "µM"},
      {"measurement": "EC50", "setting": "vaccinia virus", "value": "> 250", "unit": "µM"},
      {"measurement": "Cytotoxic concentration", "setting": "[4]", "value": "> 250", "unit": "µM"}
    ]},
    {"smiles": "O=c1[nH]c(=O)n([C@H]2C[C@H](O)[C@@H](CO)O2)cc1/C=C/Br", "note": "[Birivudin, Brivudin, reference compound]", "values": [
      {"measurement": "EC50", "setting": "[1]", "value": 0.01, "unit": "µM"},
      {"measurement": "EC50", "setting": "[2]", "value": 0.1, "unit": "µM"},
      {"measurement": "EC50", "setting": "vaccinia virus", "value": 5.8, "unit": "µM"},
      {"measurement": "Cytotoxic concentration", "setting": "[4]", "value": "> 250", "unit": "µM"}
    ]},
    {"smiles": "O=C(O)/C=C/c1ccc(O)c(O)c1", "note": "[Caffeic acid, reference compound]", "values": [
      {"measurement": "FRAP", "setting": "[5]", "value": "10156.12 ± 15.5", "unit": "µmolTE/g"},
      {"measurement": "DPPH (% Inhibition)", "setting": "[6]; tested concentration 0.0105 mg/mL", "value": "81.35 ± 0.35", "unit": "%"}
    ]},
    {"smiles": "Nc1ccn(C[C@@H](CO)OCP(=O)(O)O)c(=O)n1", "note": "[Cidofovir, reference compound]", "values": [
      {"measurement": "EC50", "setting": "[1]", "value": 4.5, "unit": "µM"},
      {"measurement": "EC50", "setting": "[2]", "value": 2.8, "unit": "µM"},
      {"measurement": "EC50", "setting": "[3]", "value": 3.4, "unit": "µM"},
      {"measurement": "EC50", "setting": "Adeno virus-2", "value": 10, "unit": "µM"},
      {"measurement": "EC50", "setting": "vaccinia virus", "value": 50, "unit": "µM"},
      {"measurement": "Cytotoxic concentration", "setting": "[4]", "value": "> 250", "unit": "µM"}
    ]},
    {"smiles": "O=S(=O)(O)c1ccc2[nH]c(-c3ccco3)nc2c1", "note": "[Compound 8, 2-(furan-2-yl)-1H-benzimidazole-5-sulfonic Acid]", "values": [
      {"measurement": "IC50", "setting": "[7]", "value": "≥ 100", "unit": "µM"},
      {"measurement": "inhibition at 100 µg/mL", "setting": "Trichophyton tonsurans", "value": "< 0", "unit": "%"},
      {"measurement": "EC50", "setting": "[1]", "value": "> 100", "unit": "µM"},
      {"measurement": "inhibition at 100 µg/mL", "setting": "Epidermophyton floccosum", "value": "< 0", "unit": "%"},
      {"measurement": "EC50", "setting": "[8]", "value": "> 100", "unit": "µM"},
      {"measurement": "inhibition at 100 µg/mL", "setting": "[9]", "value": "< 0", "unit": "%"},
      {"measurement": "IC50", "setting": "[10]", "value": "≥ 100", "unit": "µM"},
      {"measurement": "Cytotoxic concentration", "setting": "HeLa cell cultures", "value": "> 100", "unit": "µM"},
      {"measurement": "IC50", "setting": "[11]", "value": "≥ 100", "unit": "µM"},
      {"measurement": "EC50", "setting": "[2]", "value": "> 100", "unit": "µM"},
      {"measurement": "FRAP", "setting": "[5]", "value": "<LOQ *"},
      {"measurement": "EC50", "setting": "[3]", "value": "> 100", "unit": "µM"},
      {"measurement": "melting point", "value": "> 250", "unit": "°C"},
      {"measurement": "EC50", "setting": "Coxsackie virus B4", "value": "> 100", "unit": "µM"},
      {"measurement": "EC50", "setting": "Human Coronavirus (229E)", "value": "> 100", "unit": "µM"},
      {"measurement": "IC50", "setting": "[12]", "value": "> 100", "unit": "µM"},
      {"measurement": "inhibition at 100 µg/mL", "setting": "Microsporum canis", "value": "< 0", "unit": "%"},
      {"measurement": "inhibition at 100 µg/mL", "setting": "Microsporum gypseum", "value": "8 ± 2.44", "unit": "%"},
      {"measurement": "SPF", "setting": "[13]", "value": "10.96±0.54"},
      {"measurement": "UVA/UVB", "setting": "[13]", "value": 0.29},
      {"measurement": "UVAPF", "setting": "[13]", "value": "1.33±0.05"},
      {"measurement": "λc (critical wavelength)", "setting": "[13]", "value": 342, "unit": "nm"},
      {"measurement": "DPPH (% Inhibition)", "setting": "[6]; tested at 1 mg/mL", "value": "10.96 ± 0.56", "unit": "%"},
      {"measurement": "EC50", "setting": "[14]", "value": "> 100", "unit": "µM"},
      {"measurement": "IC50", "setting": "[15]", "value": "> 100", "unit": "µM"},
      {"measurement": "EC50", "setting": "Adeno virus-2", "value": "> 100", "unit": "µM"},
      {"measurement": "EC50", "setting": "vaccinia virus", "value": "> 100", "unit": "µM"},
      {"measurement": "Cytotoxic concentration", "setting": "[4]", "value": "> 100", "unit": "µM"}
    ]}
  ]
}
